Experimental data reported in ChEMBL document CHEMBL2034942, “Trigoxyphins H and I: two new daphnane diterpenoids from Trigonostemon xyphophylloides” (Bioorg Med Chem Lett, 2012).

Legend:
[1] = Cytotoxicity against human SPC-A1 cells after 48 hrs by MTT assay; format: functional, cell-based; conditions: SPCA1, 48 h
Bel-7402 = assay: Cytotoxicity against human Bel7402 cells after 48 hrs by MTT assay; format: functional, cell-based; conditions: Bel-7402, 48 h

Structure (SMILES) | IC50 [1] [µM] | IC50 (Bel-7402) [µM]
C=C(C)[C@@]12OC3(c4ccccc4)O[C@@H]1[C@@H]1[C@@H]4O[C@]4(C)[C@@H](O)[C@@H]4C(=O)C(C)=C[C@@H]4[C@@]1(O3)[C@H](C)[C@@H]2OC(=O)c1ccccc1 (relative stereo) | 37.3 | 16.1
C=C(C)[C@@]12OC3(c4ccccc4)O[C@@H]1[C@@H]1[C@H](OC(C)=O)[C@@](C)(OC(=O)c4ccccc4)[C@@H](OC(C)=O)[C@@]4(O)[C@@H](C[C@H](C)[C@@H]4OC(C)=O)[C@@]1(O3)[C@H](C)[C@@H]2OC(C)=O [TRIGOXYPHIN I] | 11.1 | 8.73
